Test results reported in patent publication US10058550B2, “Methods of treating heart failure” (priority 2015, dated 2018).

These compounds were tested against human APJ receptor (Homo sapiens (Human), UniProt P35414) (assay: biochemical). Conditions: read-out: Activity hAPJ SPA EC50 IP.
Format: biochemical
How it was run: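 Agonist-stimulated [35S]GTPγS (0.2 nM) binding was read by SPA after 90 min at room temperature. Buffer: 20 mM HEPES pH 7.5 with 5 mM MgCl2, 200 mM NaCl, 3 μM GDP, 0.1% BSA; membranes were from a stable human APJ CHO line. EC50 values are averages of independent runs, fitted by non-linear regression.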

Sequence of human APJ receptor (P35414 whole entry): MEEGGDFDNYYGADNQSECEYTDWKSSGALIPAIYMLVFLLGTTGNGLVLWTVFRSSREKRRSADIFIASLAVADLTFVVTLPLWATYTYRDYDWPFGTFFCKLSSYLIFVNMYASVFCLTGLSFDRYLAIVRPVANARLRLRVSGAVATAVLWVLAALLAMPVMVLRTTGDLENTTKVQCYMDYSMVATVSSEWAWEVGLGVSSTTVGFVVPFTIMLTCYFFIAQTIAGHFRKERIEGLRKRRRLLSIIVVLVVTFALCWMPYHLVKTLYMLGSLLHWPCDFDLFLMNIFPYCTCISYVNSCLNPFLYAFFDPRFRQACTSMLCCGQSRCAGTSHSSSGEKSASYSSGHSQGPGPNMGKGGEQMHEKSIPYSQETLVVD

Point of comparison: `COc1cccc(OC)c1-n1c(NS(=O)(=O)CCc2ccc(Cl)cc2)nnc1-c1cccnc1` [Example 369.0, 2-(4-chlorophenyl)-N-(4-(2,6-dimethoxyphenyl)-5-(3-pyridinyl)-4H-1,2,4-triazol-3-yl)ethanesulfonamide], EC50 16 nM. Against it:
- COCCOc1cccc(-c2nnc(NS(=O)(=O)[C@@H](C)[C@H](OC)c3ncc(C)cn3)n2-c2c(OC)cccc2OC)n1 [Example 196.0, (1R,2S)-N-(4-(2,6-dimethoxyphenyl)-5-(6-(2-methoxyethoxy)pyridin-2-yl)-4H-1,2,4-triazol-3-yl)-1-methoxy-1-(5-methylpyrimidin-2-yl)propane-2-sulfonamide] — 4.7-fold lower, 3.4 nM
- COc1cccc(OC)c1-n1c(NS(=O)(=O)[C@@H](C)[C@H](OC)c2ncc(C)cn2)nnc1-c1cccc(N(C)C)n1 [Example 197.0, (1R,2S)-N-(4-(2,6-dimethoxyphenyl)-5-(6-(dimethylamino)pyridin-2-yl)-4H-1,2,4-triazol-3-yl)-1-methoxy-1-(5-methylpyrimidin-2-yl)propane-2-sulfonamide] — 76-fold lower, 0.21 nM
- COc1cccc(OC)c1-n1c(NS(=O)(=O)[C@@H](C)[C@H](C)c2cnc(C)cn2)nnc1-c1cccnc1 [Example 198.0, (2S,3R)-N-(4-(2,6-dimethoxyphenyl)-5-(pyridin-3-yl)-4H-1,2,4-triazol-3-yl)-3-(5-methylpyrazin-2-yl)butane-2-sulfonamide] — 15-fold lower, 1.1 nM
- COc1cccc(-c2nnc(NS(=O)(=O)CCc3ccc(F)cc3C#N)n2-c2c(OC)cccc2OC)n1 [Example 200.0, 2-(2-cyano-4-fluorophenyl)-N-(4-(2,6-dimethoxyphenyl)-5-(6-methoxy-2-pyridinyl)-4H-1,2,4-triazol-3-yl)ethanesulfonamide] — 28-fold lower, 0.57 nM
- COc1cccc(OC)c1-n1c(NS(=O)(=O)CCN2C(=O)N(C)CC[C@@H]2C)nnc1-c1cncc(C)c1 [Example 201.0, N-(4-(2,6-dimethoxyphenyl)-5-(5-methyl-3-pyridinyl)-4H-1,2,4-triazol-3-yl)-2-((6S)-3,6-dimethyl-2-oxotetrahydro-1(2H)-pyrimidinyl)ethanesulfonamide] — 6.4-fold lower, 2.5 nM
- COc1cccc(-c2nnc(NS(=O)(=O)CCc3ccc(F)cc3C#N)n2-c2c(OC)ncnc2OC)n1 [Example 204.0, 2-(2-cyano-4-fluorophenyl)-N-(4-(4,6-dimethoxy-5-pyrimidinyl)-5-(6-methoxy-2-pyridinyl)-4H-1,2,4-triazol-3-yl)ethanesulfonamide] — 11-fold lower, 1.5 nM
- CCNC(=O)c1cccc(-c2nnc(NS(=O)(=O)[C@@H](C)Cc3ncc(F)cn3)n2-c2c(OC)cccc2OC)n1 [Example 229.0, 6-(4-(2,6-dimethoxyphenyl)-5-((((1S)-2-(5-fluoro-2-pyrimidinyl)-1-methylethyl)sulfonyl)amino)-4H-1,2,4-triazol-3-yl)-N-ethyl-2-pyridinecarboxamide, 6-(4-(2,6-dimethoxyphenyl)-5-((((1R)-2-(5-fluoro-2-pyrimidinyl)-1-methylethyl)sulfonyl)amino)-4H-1,2,4-triazol-3-yl)-N-ethyl-2-pyridinecarboxamide] — 2.5-fold lower, 6.3 nM
- COc1cccc(OC)c1-n1c(NS(=O)(=O)[C@@H](C)[C@H](OC)c2ncccn2)nnc1-c1cncc(C)c1 [Example 250.0, (1R,2S)-N-(4-(2,6-dimethoxyphenyl)-5-(5-methyl-3-pyridinyl)-4H-1,2,4-triazol-3-yl)-1-methoxy-1-(2-pyrimidinyl)-2-propanesulfonamide] — 5.7-fold lower, 2.8 nM
- COc1cccc(-c2nnc(NS(=O)(=O)[C@@H](C)[C@H](C)c3ncc(C)cn3)n2-c2c(OC)cccc2OC)n1 [Example 313.0, (2S,3R)—N-(4-(2,6-dimethoxyphenyl)-5-(6-methoxy-2-pyridinyl)-4H-1,2,4-triazol-3-yl)-3-(5-methyl-2-pyrimidinyl)-2-butanesulfonamide] — 53-fold lower, 0.3 nM
- COc1cccc(-c2nnc(NS(=O)(=O)[C@H](C)[C@@H](C)c3ncc(C)cn3)n2-c2c(OC)cccc2OC)n1 [Example 314.0, (2R,3S)—N-(4-(2,6-dimethoxyphenyl)-5-(6-methoxy-2-pyridinyl)-4H-1,2,4-triazol-3-yl)-3-(5-methyl-2-pyrimidinyl)-2-butanesulfonamide] — 4.7-fold lower, 3.4 nM
- COc1cccc(OC)c1-n1c(NS(=O)(=O)CCc2ccc(Cl)cc2)nnc1-c1ccccn1 [Example 368.0, 2-(4-chlorophenyl)-N-(4-(2,6-dimethoxyphenyl)-5-(2-pyridinyl)-4H-1,2,4-triazol-3-yl)ethanesulfonamide] — 3.7-fold higher, 59 nM
- COc1cccc(OC)c1-n1c(NS(=O)(=O)N[C@@H](C)c2ncc(F)cn2)nnc1-c1cncc(C)c1 [Example 392.0] — 3-fold higher, 48 nM
- CCO[C@H](c1ncc(Cl)cn1)[C@H](C)S(=O)(=O)Nc1nnc(-c2cncc(C)c2)n1-c1c(OC)cccc1OC [Example 429.0, (1R,2S)-1-(5-chloropyrimidin-2-yl)-N-(4-(2,6-dimethoxyphenyl)-5-(5-methylpyridin-3-yl)-4H-1,2,4-triazol-3-yl)-1-ethoxypropane-2-sulfonamide] — 59-fold lower, 0.27 nM
- COc1cccc(OC)c1-n1c(NS(=O)(=O)[C@@H](C)[C@H](C)c2ncc(F)cn2)nnc1-c1cccc(C)n1 [Example 453.0, (2S,3R)—N-(4-(2,6-dimethoxyphenyl)-5-(6-methyl-2-pyridinyl)-4H-1,2,4-triazol-3-yl)-3-(5-fluoro-2-pyrimidinyl)-2-butanesulfonamide] — 27-fold lower, 0.6 nM
- COc1cccc(OC)c1-n1c(NS(=O)(=O)[C@@H](C)[C@H](C)c2ncc(F)cn2)nnc1-c1cccc(Cl)n1 [Example 454.0, (2S,3R)—N-(5-(6-chloro-2-pyridinyl)-4-(2,6-dimethoxyphenyl)-4H-1,2,4-triazol-3-yl)-3-(5-fluoro-2-pyrimidinyl)-2-butanesulfonamide] — 19-fold lower, 0.84 nM
- COc1cccc(OC)c1-n1c(NS(=O)(=O)[C@@H](C)[C@H](C)c2ncc(F)cn2)nnc1-c1cccc(-c2ccccc2)n1 [Example 455.0, (2S,3R)—N-(4-(2,6-dimethoxyphenyl)-5-(6-phenyl-2-pyridinyl)-4H-1,2,4-triazol-3-yl)-3-(5-fluoro-2-pyrimidinyl)-2-butanesulfonamide] — 3.3-fold lower, 4.9 nM
- COc1cccc(OC)c1-n1c(NS(=O)(=O)CCN2C(=O)N(C)CC[C@H]2C)nnc1-c1cncc(C)c1 [Example 460.0, N-(4-(2,6-dimethoxyphenyl)-5-(5-methyl-3-pyridinyl)-4H-1,2,4-triazol-3-yl)-2-((6R)-3,6-dimethyl-2-oxotetrahydro-1(2H)-pyrimidinyl)ethanesulfonamide] — 1.6-fold lower, 9.7 nM
- COc1cccc(OC)c1-n1c(NS(=O)(=O)CCc2ccc(F)cc2C#N)nnc1-c1cccc(=O)[nH]1 [Example 461.0, 2-(2-cyano-4-fluorophenyl)-N-(4-(2,6-dimethoxyphenyl)-5-(6-oxo-1,6-dihydro-2-pyridinyl)-4H-1,2,4-triazol-3-yl)ethanesulfonamide] — 42-fold higher, 670 nM
- COc1cccc(OC)c1-n1c(NS(=O)(=O)/C(C)=C(\C)c2ncc(F)cn2)nnc1-c1cncc(C)c1 [Example 504.0, (2E)-N-(4-(2,6-dimethoxyphenyl)-5-(5-methyl-3-pyridinyl)-4H-1,2,4-triazol-3-yl)-3-(5-fluoro-2-pyrimidinyl)-2-butene-2-sulfonamide] — within 1.5-fold, 18 nM
- COc1cccc(-c2nnc(NS(=O)(=O)/C(C)=C(\C)c3ncc(F)cn3)n2-c2c(OC)cccc2OC)n1 [Example 505.0, (2E)-N-(4-(2,6-dimethoxyphenyl)-5-(6-methoxy-2-pyridinyl)-4H-1,2,4-triazol-3-yl)-3-(5-fluoro-2-pyrimidinyl)-2-butene-2-sulfonamide] — 8.4-fold lower, 1.9 nM
- COc1cccc(OC)c1-n1c(NS(=O)(=O)[C@H](C)[C@@H](C)c2ncc(C)cn2)nnc1-c1cccnc1 [Example 585.0, (2R,3S)—N-(4-(2,6-dimethoxyphenyl)-5-(3-pyridinyl)-4H-1,2,4-triazol-3-yl)-3-(5-methyl-2-pyrimidinyl)-2-butanesulfonamide] — 1.6-fold higher, 25 nM
- COc1cccc(OC)c1-n1c(NS(=O)(=O)[C@@H](C)[C@H](OC)c2ncc(Cl)cn2)nnc1-c1cccnc1 [Example 591.0, (1R,2S)-1-(5-chloro-2-pyrimidinyl)-N-(4-(2,6-dimethoxyphenyl)-5-(3-pyridinyl)-4H-1,2,4-triazol-3-yl)-1-methoxy-2-propanesulfonamide] — 76-fold lower, 0.21 nM
- COc1cccc(OC)c1-n1c(NS(=O)(=O)[C@H](C)[C@@H](OC)c2ncc(Cl)cn2)nnc1-c1cccnc1 [Example 592.0, (1S,2R)-1-(5-chloro-2-pyrimidinyl)-N-(4-(2,6-dimethoxyphenyl)-5-(3-pyridinyl)-4H-1,2,4-triazol-3-yl)-1-methoxy-2-propanesulfonamide] — 1.6-fold lower, 10 nM
- CCO[C@H](c1ncc(Cl)cn1)[C@H](C)S(=O)(=O)Nc1nnc(-c2cncc(C)c2)n1-c1c(OC)cccc1OC [Example 610.0, (1R,2S)-1-(5-chloro-2-pyrimidinyl)-N-(4-(2,6-dimethoxyphenyl)-5-(5-methyl-3-pyridinyl)-4H-1,2,4-triazol-3-yl)-1-ethoxy-2-propanesulfonamide] — 53-fold lower, 0.3 nM
- COc1cccc(OC)c1-n1c(NS(=O)(=O)[C@H](C)[C@@H](O)c2cnc(C)cn2)nnc1-c1cccnc1 [Example 614.0, (1S,2R)—N-(4-(2,6-dimethoxyphenyl)-5-(3-pyridinyl)-4H-1,2,4-triazol-3-yl)-1-hydroxy-1-(5-methyl-2-pyrazinyl)-2-propanesulfonamide] — 9.4-fold lower, 1.7 nM
- COc1cccc(OC)c1-n1c(NS(=O)(=O)[C@@H](C)[C@H](O)c2cnc(C)cn2)nnc1-c1cccnc1 [Example 615.0, (1R,2S)—N-(4-(2,6-dimethoxyphenyl)-5-(3-pyridinyl)-4H-1,2,4-triazol-3-yl)-1-hydroxy-1-(5-methyl-2-pyrazinyl)-2-propanesulfonamide] — 4.1-fold higher, 65 nM
- COc1cccc(OC)c1-n1c(NS(=O)(=O)[C@@H](C)[C@H](O)c2ncc(C)cn2)nnc1-c1cccnc1 [Example 616.0, (1R,2S)—N-(4-(2,6-dimethoxyphenyl)-5-(pyridin-3-yl)-4H-1,2,4-triazol-3-yl)-1-hydroxy-1-(5-methylpyrimidin-2-yl)propane-2-sulfonamide] — 35-fold lower, 0.46 nM
